Test system: patients with advanced renal cell carcinoma
Assay: METEOR quality of life (FKSI-19, FKSI-DRS, EQ-5D-5L) and time to deterioration
Type: in vivo, human
Conditions: for EQ-Index, Evero Intercept (change at Week 4) / EQ-VAS, Evero Intercept (change at Week 4) / FKSI-19 Total, Evero Intercept (change at Week 4) / FKSI-DRS (9-item), Evero Intercept (change at Week 4): growth curve analysis
Text: Patients completed the 19-item Functional Assessment of Cancer Therapy-Kidney Symptoms Index (FKSI-19) and the 5-level EuroQoL-5 Dimensions (EQ-5D-5L) questionnaires at baseline and throughout the study. The 9-item FKSI-Disease Related Symptoms (FKSI-DRS) is a subset of FKSI-19. Data were summarized descriptively and by mixed-effects repeated-measures analysis (clinically relevant difference was an effect size ≥0.3). Time to deterioration (TTD) was defined as earlier of death, radiographic progressive disease or ≥4-point decrease from baseline in FKSI-DRS.
QoL was measured by using two validated patient self-reported instruments: the Functional Assessment of Cancer Therapy-Kidney Symptom Index-19 item (FKSI-19) and EuroQol Group's EQ-5D-5L questionnaires. Patients were required to complete the QoL questionnaires before any assessments at each clinic visit prior to the first dose, every 4 weeks through Week 25, every 8 weeks thereafter for the first year, then every 12 weeks thereafter. The QoL assessments were conducted per protocol prior to the patient knowing the results of their next tumor assessment. These assessments were performed regardless of whether study treatment was given, reduced, interrupted, or discontinued until the date of the last tumor imaging assessment. Questionnaires were provided on paper in the patient's own language.
The FKSI-19 instrument is a 19-item self-reported questionnaire with a total score and four subscales that assesses disease-related symptoms (DRS), treatment side effects, and function/well-being associated with advanced kidney cancer. It queries symptom severity and interference in activity and general health perceptions (Rao D, Butt Z, Rosenbloom S, Robinson D Jr, Von Roenn J, Kuzel T M, Cella D. A Comparison of the Renal Cell Carcinoma-Symptom Index (RCC-SI) and the Functional Assessment of Cancer Therapy-Kidney Symptom Index (FKSI). J Pain Symptom Manage. 2009; 38(2):291-8; Rothrock N E, Jensen S E, Beaumont J L, Abernethy A P, Jacobsen P B, Syrjala K, Cella D. Development and initial validation of the NCCN/FACT symptom index for advanced kidney cancer. Value Health. 2013; 16(5):789-96). The FKSI-19 comprises four sub-scales (DRS-Physical, DRS-Emotional, Treatment Side Effects, and Function/Well Being; Table 2.1). Each of the items is scored on a 5-point scale from 0 (not at all) to 4 (very much). Higher FKSI-19 scores indicate improvement. The FKSI-19 ensures content validity congruent with FDA Guidance (FDA. Guidance for Industry. Patient-Reported Outcome Measures: Use in Medical Product Development to Support Labeling Claims. December 2009). and was developed from a previous 9-item DRS version (FKSI-DRS; lack of energy, pain, losing weight, fatigue, short of breath, fevers, bone pain, coughing, blood in urine). The FKSI-19 includes selected treatment side effects that are important to the patient and physician.
The standardized measure of health status EQ-5D-5L, developed by the EuroQol, was also used in this study in order to measure generic health status (Herdman M, Gudex C, Lloyd A, Janssen M, Kind P, Parkin D, t al. Development and preliminary testing of the new five-level version of EQ-5D (EQ-5D-5L). Qual Life Res. 2011; 20(10):1727-36). It comprises five functional and symptom dimensions: mobility, self-care, usual activities, pain/discomfort, and anxiety/depression. Levels indicate increasing severity from Level 1 (no problem) to Levels 2 through 5 (mild problem to extreme problem). The digits from the 5 dimensions were converted into a single population-based index value normalized across the nine countries in the study for which index value sets were available (van Hout B, Janssen M F, Feng Y S, Kohlmann T, Busschbach J, Golicki D, et al. Interim scoring for the EQ-5D-5L: mapping the EQ-5D-5L to EQ-5D-3L value sets. Value Health. 2012; 15(5):708-15). Index values range from 0 to 1 and a higher index score indicates better health. […]

[1] = FKSI-19 item, repeated measures, ITT
[2] = FKSI-19 subscale, repeated measures, ITT
[3] = Late Dropout (Week 41 or later)

CO[C@H]1C[C@@H]2CC[C@@H](C)[C@@](O)(O2)C(=O)C(=O)N2CCCC[C@H]2C(=O)O[C@H]([C@H](C)C[C@@H]2CC[C@@H](OCCO)[C@H](OC)C2)CC(=O)[C@H](C)/C=C(\C)[C@@H](O)[C@@H](OC)C(=O)[C@H](C)C[C@H](C)/C=C/C=C/C=C/1C [everolimus]
Able to work, LSMean change from baseline [1]: −0.101
Blood in my urine, LSMean change from baseline [1]: −0.001
Bone pain, LSMean change from baseline [1]: 0.057
Content with quality life, LSMean change from baseline [1]: −0.017
Coughing, LSMean change from baseline [1]: −0.059
Diarrhea, LSMean change from baseline [1]: −0.326
Enjoy life, LSMean change from baseline [1]: −0.014
Fatigued, LSMean change from baseline [1]: −0.305
Fevers, LSMean change from baseline [1]: −0.021
Good appetite, LSMean change from baseline [1]: 0.181
Lack of energy, LSMean change from baseline [1]: −0.207
Losing weight, LSMean change from baseline [1]: −0.301
Nausea, LSMean change from baseline [1]: 0.069
Pain, LSMean change from baseline [1]: 0.067
Short of breath, LSMean change from baseline [1]: −0.271
Side effects of treatment, LSMean change from baseline [1]: −0.523
Sleeping well, LSMean change from baseline [1]: −0.152
Weak all over, LSMean change from baseline [1]: −0.265
Worry condition worsen, LSMean change from baseline [1]: 0.393
DRS-Emotional, LSMean change from baseline [2]: 0.393
DRS-Physical, LSMean change from baseline [2]: −1.386
Function/Well-Being, LSMean change from baseline [2]: −0.169
Treatment Side Effects, LSMean change from baseline [2]: −0.814
Median TTD (bone metastases per IRC at baseline: No): 3.8 mo
Median TTD (bone metastases per IRC at baseline: Yes): 1.9 mo
EQ-Index, Evero Intercept (change at Week 4) (Early Dropout (before Week 24)): −0.046
EQ-VAS, Evero Intercept (change at Week 4) (Early Dropout (before Week 24)): −2.474
FKSI-19 Total, Evero Intercept (change at Week 4) (Early Dropout (before Week 24)): −3.643
FKSI-DRS (9-item), Evero Intercept (change at Week 4) (Early Dropout (before Week 24)): −2.002
EQ-Index, Evero Intercept (change at Week 4) [3]: 0.033
EQ-VAS, Evero Intercept (change at Week 4) [3]: 1.012
FKSI-19 Total, Evero Intercept (change at Week 4) [3]: 1.105
FKSI-DRS (9-item), Evero Intercept (change at Week 4) [3]: 0.453
EQ-Index, Evero Intercept (change at Week 4) (Median Dropout (Weeks 25-33)): −0.018
EQ-VAS, Evero Intercept (change at Week 4) (Median Dropout (Weeks 25-33)): −1.181
FKSI-19 Total, Evero Intercept (change at Week 4) (Median Dropout (Weeks 25-33)): −1.838
FKSI-DRS (9-item), Evero Intercept (change at Week 4) (Median Dropout (Weeks 25-33)): −0.843
Median time to deterioration (TTD) (overall ITT, earlier of death, rPD, ≥4-point FKSI-DRS decrease from baseline): 3.7 mo
EQ-Index, LSMean change from baseline (repeated measures, ITT): −0.02
EQ-VAS, LSMean change from baseline (repeated measures, ITT): −1.27
FKSI-19 (19-item) Total Score, LSMean change from baseline (repeated measures, ITT): −2.214
FKSI-DRS (9-item), LSMean change from baseline (repeated measures, ITT): −0.93

— patent US11141413B2, “Method of treating renal cell carcinoma using N-(4-(6,7-dimethoxyquinolin-4-yloxy)phenyl)-N′-(4-fluorophenyl)cyclopropane-1,1-dicarboxamide, (2S)-hydroxybutanedioate” (Exelixis, Inc., priority 2016, dated 2021)
